# According to article PMC3823830 (Anesthesiology, 2013):
# Entries after “also recorded” stand apart in the source; their conditions may differ. Like-named read-outs stand apart in the source and are kept apart here.
# How the values were obtained:
# human P-gp = conditions: cited from earlier work
# P-gp [1] = conditions: cited from earlier work
# P-gp [2] = conditions: mouse, in vivo; cited from earlier work
# [3] = tested on: mdr1a (murine MDR1 homologue); conditions: cited from earlier work
# P-gp [4] = conditions: P-gp-overexpressing cells; cited from earlier work
# [5] = cited from earlier work
# [6] = Compartmental pharmacokinetic modeling of morphine and morphine glucuronides; format: in vivo, human; conditions: for Delay time (appearance of the metabolite in plasma): set at 0.01 h for M-3-G when not estimable; for VSS of morphine glucuronide: fixed at 0.2 × body mass (kg); for Vd / clearance: both, human, plasma, intravenous; for VC (central volume): constrained to be the same in both sessions
# clinical = conditions: both, human, plasma, iv, 0.1 mg/kg
# P-gp [7] = conditions: humans; cited from earlier work
# healthy volunteers [8] = conditions: average; cyclosporine did not change this delay
# healthy volunteers [9] = conditions: morphine 0.1 mg/kg
# healthy volunteers [10] = assay: Pharmacokinetic-pharmacodynamic effect-site modeling of miosis; conditions: for Predicted maximum biophase concentration: model-predicted
# P-gp [11] = conditions: bovine brain capillary cell P-gp-mediated transport; cited from earlier work
# P-gp [12] = conditions: rats; cited from earlier work
# [13] = with cyclosporine, median (range)
smiles,measurement,setting,value
C=C[C@H]1C[N@@]2CC[C@H]1C[C@@H]2[C@@H](O)c1ccnc2ccc(OC)cc12 [Quinidine],IC50,human P-gp,34 µM
same,IC50,P-gp [1],3 µM
same,IC50,P-gp [2],36 µM
CN(C)C(=O)C(CCN1CCC(O)(c2ccc(Cl)cc2)CC1)(c1ccccc1)c1ccccc1 [loperamide],Transport ratio in mdr1-knockout mice vs control,[3],10.4
same,Efflux ratio,P-gp [4],> 20%
"CN1CC[C@]23c4c5ccc(O[C@@H]6O[C@H](C(=O)O)[C@@H](O)[C@H](O)[C@H]6O)c4O[C@H]2[C@@H](O)C=C[C@H]3[C@H]1C5 [Morphine-3-glucuronide, morphine-3-glucuronide]",Time of peak plasma concentration after the end of the morphine infusion,control,0.2 h
same,Plasma AUC ratio (morphine glucuronide/morphine),"control, mean ± SD",5.0 ± 1.2
same,Plasma Tmax,"control, relative to start of morphine infusion, mean ± SD",1.2 ± 0.2 h
same,Delay of time to peak plasma concentration by cyclosporine,cyclosporine vs control,0.4 h
same,Plasma AUC ratio (morphine glucuronide/morphine),"with cyclosporine, mean ± SD",5.3 ± 1.1
same,Clinical effect,[5],no clinical effect
same,ClE (glucuronide elimination clearance),"[6]; control, median (range)",8.4 (5.3 to 12.4) L/h
same,Fraction eliminated (percent of morphine dose eliminated as the glucuronide metabolite),"[6]; control, median (range)",approximately 40%
same,Fraction eliminated (percent of morphine dose eliminated as the glucuronide metabolite),"[6]; control, median (range), […]",40.5 (27 to 52) %
same,Delay time (appearance of the metabolite in plasma),"[6]; control, median (range)",0.010 (0.003 to 0.09) h
same,CLEM-3-G (elimination clearance represented by metabolism to morphine-glucuronide),"[6]; control, CLE × percent eliminated as glucuronide, mean ± SD",39.0 ± 14.8 L/h
same,VSS of morphine glucuronide,"[6]; control, mean ± SD",15.0 ± 2.5 L
same,Decrease in median glucuronide elimination clearance by cyclosporine,[6]; cyclosporine vs control,more than 10%
same,ClE (glucuronide elimination clearance),[6]; [13],7.5 (3.7 to 14.0) ^@ L/h
same,Fraction eliminated (percent of morphine dose eliminated as the glucuronide metabolite),[6]; [13],approximately 40%
same,Fraction eliminated (percent of morphine dose eliminated as the glucuronide metabolite),"[6]; with cyclosporine, median (range), […]",43.4 (21 to 73) %
same,Delay time (appearance of the metabolite in plasma),[6]; [13],0.022 (0.003 to 0.13) ^& h
same,CLEM-3-G (elimination clearance represented by metabolism to morphine-glucuronide),"[6]; with cyclosporine, CLE × percent eliminated as glucuronide, mean ± SD",35.3 ± 13.4 L/h
same,VSS of morphine glucuronide,"[6]; with cyclosporine, mean ± SD",15.0 ± 2.5 L
"CN1CC[C@]23c4c5ccc(O)c4O[C@H]2[C@@H](O[C@@H]2O[C@H](C(=O)O)[C@@H](O)[C@H](O)[C@H]2O)C=C[C@H]3[C@H]1C5 [Morphine-6-glucuronide, morphine-6-glucuronide]",Plasma AUC ratio (morphine glucuronide/morphine),"control, mean ± SD",0.88 ± 0.20
same,Plasma AUC ratio (morphine glucuronide/morphine),"with cyclosporine, mean ± SD",0.85 ± 0.20
same,AUC(0-inf),clinical,0.117 ± 0.032 µg·h/mL
same,Cmax,clinical,0.0249 ± 0.0052 µg/mL
same,half-life,clinical,2.8 ± 1.2 h
same,Vd,[6],15 ± 2.5 L
same,Vd,[6]; 0.1 mg/kg,15 ± 2.5 L
same,clearance,"[6]; 0.1 mg/kg, CLEM-6-G (elimination clearance represented by metabolism to morphine-glucuronide), control, CLE × percent eliminated as glucuronide, mean ± SD",138 mL/min
same,clearance,"[6]; 0.1 mg/kg, ClE (glucuronide elimination clearance), control, median (range)",160 mL/min
same,clearance,"[6]; CLEM-6-G (elimination clearance represented by metabolism to morphine-glucuronide), with cyclosporine, CLE × percent eliminated as glucuronide, mean ± SD",103 mL/min
same,Fraction eliminated (percent of morphine dose eliminated as the glucuronide metabolite),"[6]; control, median (range), listed as Morphine-6- glucuronide",8.1 (4.9 to 12.5) %
same,Fraction eliminated (percent of morphine dose eliminated as the glucuronide metabolite),"[6]; control, median (range), listed as morphine-6-glucuronide",8.1%
same,Delay time (appearance of the metabolite in plasma),"[6]; control, median (range)",0.11 (0.04 to 0.34) h
same,Decrease in median glucuronide elimination clearance by cyclosporine,[6]; cyclosporine vs control,~25%
same,Fraction eliminated (percent of morphine dose eliminated as the glucuronide metabolite),"[6]; with cyclosporine, median (range), listed as Morphine-6- glucuronide",7.4 (3.3 to 16.6) ^& %
same,Fraction eliminated (percent of morphine dose eliminated as the glucuronide metabolite),"[6]; with cyclosporine, median (range), listed as morphine-6-glucuronide",7.4%
same,Delay time (appearance of the metabolite in plasma),[6]; [13],0.18 (0.06 to 0.37) h
C/C=C/C[C@@H](C)C(=O)[C@H]1C(=O)N[C@@H](C(C)C)C(=O)N(C)CC(=O)N(C)[C@@H](CC(C)C)C(=O)N[C@@H](C(C)C)C(=O)N(C)[C@@H](CC(C)C)C(=O)N[C@@H](C)C(=O)N[C@H](C)C(=O)N(C)[C@@H](CC(C)C)C(=O)N(C)[C@@H](CC(C)C)C(=O)N(C)[C@@H](C(C)C)C(=O)N1C [PSC833],Effect on morphine-related respiratory depression (and drowsiness),P-gp [7],did not significantly change; also recorded: no effect
CN1CC[C@]23c4c5ccc(O)c4O[C@H]2[C@@H](O)C=C[C@H]3[C@H]1C5 [Morphine],Time of maximum miosis after the end of the morphine infusion,healthy volunteers [8],1.6 h
same,Analgesic effect (thermal stimulus),healthy volunteers [9],negligible analgesic effects
same,VC (central volume),"[6]; control, mean ± SD",21.5 ± 4.7 L
same,Average peripheral volume (VP) during cyclosporine treatment less than control,"[6]; cyclosporine vs control, not statistically significant",approximately 11%
same,VC (central volume),"[6]; with cyclosporine, mean ± SD",21.5 ± 4.7 L
same,Predicted maximum biophase concentration,healthy volunteers [10]; after cyclosporine,41 ± 13 ng/mL
same,Maximum calculated effect site morphine concentration,healthy volunteers [10]; control (abstract),7.6 ± 2.9 ng/mL
same,Predicted maximum biophase concentration,healthy volunteers [10]; control,27 ± 11 ng/mL
same,Maximum calculated effect site morphine concentration,healthy volunteers [10]; with cyclosporine (abstract),11.5 ± 3.7 ng/mL
COc1cc2c(cc1OC)CN(CCc1ccc(NC(=O)c3cccc4c(=O)c5cccc(OC)c5[nH]c34)cc1)CC2 [GF120918],Effect on basolateral to apical flux of morphine,P-gp [11],abolished
same,Increase in morphine antinociception,P-gp [12],approximately 3 fold
